One molecule from patent US11980607B2, “Methods of treating malignant lymphoproliferative disorders” (Actuate Therapeutics Inc., priority 2018, dated 2024) can be followed below.

Experiment [1] concerns SUDHL-4, KPUM-UH1, Karpas 22, or TMD8 lymphoma cells. Description: cells. The format is cell-based. On the procedure: FIGS. 1A-1E show the viability and proliferation of lymphoma cells with 9-ING-41 treatment. 10,000 cells (SUDHL-4 (FIG. 1B), KPUM-UH1 (FIG. 1C), Karpas 422 (FIG. 1D), TMD8 (FIG. 1E)) per 96-well plate well were left untreated or treated with 1 μM 9-ING-41 in triplicate, and the number of cells on days 1, 3, 5 and 7 were calculated using the MTS assay. Briefly, 20 μL of MTS reagent was added to cells and incubated for 2 hours and, the absorbance at 490 nm (A490) was read using a Biotek plate reader. Absorbance at OD=490 nm increases proportionally to cell density. Error bars represent std. deviation between replicates.
Daudi (Burkitt) and SUDHL-4 (germinal center (GC) diffuse large B-cell lymphoma (DLBCL)) cell lines were purchased from […]. (ATCC). KPUM-UH1 (double hit DLBCL) cells were obtained from Junya Kuroda, Kyoto Prefectural University of Medicine, Kyoto, Japan. All cell lines were cultured aseptically and maintained in a water-jacketed incubator (Thermo-Forma) at 37° C. with 5% CO2 and fed with RPMI-1640 (Corning) containing […] glutamine, 10% FBS (Sigma), and antibiotic and antimycotic reagent (Gemini Bioproducts; final concentrations—100 units/mL penicillin G, 100 μg/mL streptomycin sulfate, and 250 ng/mL amphotericin B). Karpas 422 (GC-DLBCL) cells was purchased from Sigma. […] All cell numbers for assays were quantified using a TC20 automated cell counter (BioRad). […]
Cell viability at day 3 and proliferation over the course of 7 days were measured after treating cells with varying concentrations of 9-ING-41 using the Promega CellTiter 96® AQueous One Solution Cell Proliferation Assay reagent (MTS) in accordance with the manufacturer's instructions. […] The absorbance at 490 nm (A490) was determined using a Powerwave XS plate reader (Biotek).
All lymphoma cell lines used in this study express active GSK-3β. SUDHL-4, KPUM-UH1, […], or TMD8 lymphoma cells were plated, and cell numbers on days 1, 3, 5 and 7 were measured using the MTS assay. […]

The subject of another experiment is TCL and MCL lines. Nature of the experiment: Apoptosis assay in TCL and MCL lines. The format is cell-based, human. The settings on record: low doses, 48 hours. On the procedure:
Unstimulated peripheral blood B- and T-lymphocytes isolated from a healthy donor were used as normal control. Pro-apoptotic effect of the GSK3 inhibitor 9-ING-41 in various MCL and TCL lines (A) and DLBCL lines (B). (C) Cell proliferation profile of various lymphoma cell lines upon treatment with 9-ING-41. Results (A-C) are from 3 independent experiments.
Cells were seeded at 5×10^5 cells/well in 24 well plates, and incubated with 9-ING-41 at indicated concentrations for 48 hours. The cells were then stained with FITC conjugated Annexin V (Life Technologies) and Propidium Iodide followed by analysis on a BD FACS Calibur flow cytometer.
Given that both GSK3α and GSK3β are overexpressed in lymphoma cells, and that both enzymes are implicated in multiple signaling pathways critical for cell functions, whether GSK3α and GSK3β are functionally supporting the survival and proliferation of lymphoma cells was examined. […] The inhibitory concentrations of 9-ING-41 at half of the maximal effect (IC50) on cell survival of various lymphoma cell lines was calculated (Table 1).

Experiment [2] has as its system lymphoma cell lines (Jeko, Mino, OCI-Ly3). Description: DNA cell cycle analysis. Particulars: after as little as 24 hours of treatment, all lines tested. The format is cell-based, human. On the procedure: (B) Cell cycle profiles of parental Ly-1 cells and GSK3α, GSK3β, GSK-3αβ knockout subclones. Inset: Western blot image showing the depletion of GSK3α and GSK-3β protein in the knockout Ly-1 subclones.
Cells were fixed and permeabilized with cold ethanol, treated with RNase, and stained with propidium iodide (Sigma). Stained cells were run on a BD FACS Calibur using CELLQuest PRO Software (Becton Dickinson). Data were analyzed with FlowJo v.X software (Tree Star Inc).
The effect of 9-ING-41 on lymphoma cell cycle kinetics was examined. […] To further determine whether this G2/M arrest specifically resulted from GSK3β inhibition, the cell cycle profile of parental (wildtype), GSK3A, GSK3B, and GSK3A/B knockout Ly-1 subclones was examined. […] These cell cycle abnormalities of GSK3B-null and GSK3A/B-null Ly-1 cells are subtle and have little impact on the survival of the Ly-1 progeny, likely through Ly-1 cell line specific compensatory mechanisms.

The subject of experiment [3] is GSK3β localization in Jeko cells. Description: Immunofluorescence staining for GSK3β localization. The format is cell-based, human. The settings on record: 9-ING-41 treated Jeko cells.
Experimental: (B) A close-up (magnification) image of that shown in (A). […] (L) A close-up image of a mitotic cell shown in (K). (M) An overlay image showing the microtubule structure by α-tubulin (red) staining and DNA (in blue). (N) A close-up image of that shown in (M). […] (R) A close-up image of a representative mitotic cell shown in (Q). All other immunostainings of GSK3β and α-Tubulin on cytospin preparations of lymphoma cells were fixed with 4% paraformaldehyde in PBS for 15 min at room temperature followed by permeabilization and the same staining steps as above. The cells were analyzed and imaged on a conventional Zeiss microscope or a Zeiss LSR 780 confocal microscope. To determine the intracellular localization of GSK3β in mitotic cells, GSK3β localization in normal mitotic Jeko cells was analyzed. […] The localization of GSK3β in 9-ING-41 treated Jeko cells (FIG. 8Q-R) was determined.
In a further experiment the test system is Mantle Cell lymphoma. Description: Treatment of Mantle Cell Lymphoma in a human. The format is in vivo. The settings on record: 3 mg/kg per day, six 21 day cycles. On the procedure:
A human suffering from Mantle Cell lymphoma is administered 3 mg/kg per day of 9-ING-41 for six 21 day cycles. After treatment, the human's MCL is in remission.

Turning to `Cn1cc(C2=C(c3coc4ccc(F)cc34)C(=O)NC2=O)c2cc3c(cc21)OCO3` [9-ING-41, 3-(5-Fluorobenzofuran-3-yl)-4-(5-methyl-5H-[1,3]dioxolo[4,5-f]indol-7-yl)pyrrole-2,5-dione], in experiment [1] (1 μM 9-ING-41, day 7, all lymphoma cell lines, p<0.05), the “Proliferation on day 7, relative to control” value is “less than 30%”. Further, the cytotoxicity at 1 µM in experiment [1] (72 h, read-out: Reduction of cell viability on day 3) fell in the range of 40 to 70%. In addition, in experiment [1] (tested 0.1, 0.5, 1, 5 and 10 μM), the “Concentration at which a reduction in viability was seen” value was at least 0.5 µM. The “Apoptosis in TCL and MCL lines” value in the experiment on TCL and MCL lines is “induced apoptosis”. Besides, the Cell cycle effect result in experiment [2] is on record as “cell cycle blockage at G2/M”. Besides, the “Effect on localization of GSK3β” value in experiment [3] is recorded as “did not alter the localization of GSK3β”. Further, the Outcome after treatment entry in the experiment on Mantle Cell lymphoma was “in remission”.
